Series [1] deals with T1, hGLP1R (Homo sapiens, UniProt P43220).
T1 construct: expressed in transfected cells; host or cells: HEK-293 cells carrying a CRE-luciferase reporter gene
Kind of series: hGLP1R CreLuc reporter gene assay in 0.5% and 100% plasma. In kind it is cell-based. The settings on record: CreLuc reporter gene assay. A digest of the protocol:
(§1)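 HEK cells (GLP-1R, NPY2R) or CHO cells (GIPR) carrying a CRE-luciferase reporter, incubated 4 h at 37 °C with peptides in HBSS/20 mM HEPES pH 7.4 plus 0.5% human plasma, or in 100% plasma. Luminescence read; EC50 from 8-point variable-slope sigmoid fits.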
On the technique in general: Reporter assays use an easily measured gene product as a stand-in for the process of interest.

The target in series [2] is T2, hGIPR (Homo sapiens, UniProt P48546).
T2 construct: expressed in transfected cells; host or cells: CHO cells carrying a CRE-luciferase reporter gene
T2 sequence (P48546 22-466): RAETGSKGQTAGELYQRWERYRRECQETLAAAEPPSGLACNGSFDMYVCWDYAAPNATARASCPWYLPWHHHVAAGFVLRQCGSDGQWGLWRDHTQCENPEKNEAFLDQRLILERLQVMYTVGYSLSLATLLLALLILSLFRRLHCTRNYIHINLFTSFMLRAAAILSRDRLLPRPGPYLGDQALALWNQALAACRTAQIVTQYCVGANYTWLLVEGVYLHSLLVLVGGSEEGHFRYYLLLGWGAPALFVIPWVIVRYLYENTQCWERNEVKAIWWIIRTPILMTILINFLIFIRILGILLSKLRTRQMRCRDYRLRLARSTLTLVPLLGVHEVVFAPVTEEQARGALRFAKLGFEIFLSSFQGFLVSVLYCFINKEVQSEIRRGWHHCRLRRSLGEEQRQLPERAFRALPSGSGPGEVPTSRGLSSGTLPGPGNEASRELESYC
The experiment in a line: hGIPR CreLuc reporter gene assay in 0.5% and 100% plasma. The format is cell-based. The note with it: CreLuc reporter gene assay. A digest of the protocol:
as §1

Series [3] addresses T3, hNPY2R (Homo sapiens, UniProt P49146).
T3 construct: expressed in transfected cells; host or cells: HEK-293 cells carrying a CRE-luciferase reporter gene
T3 sequence (P49146 1-381): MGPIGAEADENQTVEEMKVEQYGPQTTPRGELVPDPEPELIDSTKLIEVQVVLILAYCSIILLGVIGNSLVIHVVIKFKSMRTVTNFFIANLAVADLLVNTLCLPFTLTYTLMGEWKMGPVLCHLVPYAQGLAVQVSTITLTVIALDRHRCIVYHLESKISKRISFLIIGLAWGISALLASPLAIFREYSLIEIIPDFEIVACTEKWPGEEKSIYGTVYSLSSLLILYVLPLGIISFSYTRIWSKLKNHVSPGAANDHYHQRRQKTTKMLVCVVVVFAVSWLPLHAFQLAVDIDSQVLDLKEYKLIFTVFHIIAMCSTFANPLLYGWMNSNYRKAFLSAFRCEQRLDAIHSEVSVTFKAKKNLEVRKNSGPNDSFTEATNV
Kind of series: hNPY2R CreLuc reporter gene assay in 0.5% and 100% plasma. The format is cell-based. The settings on record: CreLuc reporter gene assay. In outline: as §1

A short description of series [4]: Mouse PK after intravenous application. In kind it is in vivo. The note with it: mean residence time, intravenous 30-60 nmol/kg, male NMRI mice. A digest of the protocol:
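Male NMRI mice (30–40 g) received 30-60 nmol/kg peptide by tail-vein injection, dissolved in 50 mM phosphate buffer (pH 7.4)/3.5% mannitol. Saphenous blood was sampled up to 56 hours post-dose and EDTA plasma analysed by LC-MS. PK parameters came from non-compartmental analysis.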

Series [5] in a line: Effect on acute food intake in normal NMRI mice. The format is in vivo. The settings on record: 30 nmol/kg subcutaneously once, normalized to vehicle group, male NMRI mice. As for the experimental part: Example 4: Effect on Acute Food Intake in Normal NMRI Mice
Male NMRI mice were obtained from Janvier (Janvier Labs, France) or from Charles River (Charles River Research Models & Services Germany GmbH) at the age of 3 weeks. The animals get a microchip (Datamars, Slim Microchip T-SL) for individual identification after delivery. They were housed with 4 mice per cage under a 12/12 dark-light cycle, light off at 3 p.m. Room temperature was controlled to 21° C. +/−1° C. and humidity 60%+/−20%. Mice had ad libitum access to regular rodent chow (KLIBA Nafag 3040 or Altromin 1324, Brogaarden, Denmark) and tap water.
Latest transfer into the HM2-System of MBRose, Denmark (real-time monitoring system of food- and water intake) of the animals 5 days before study start, to allow acclimatization to experimental conditions. As the animals were uniquely identified with the microchips, each individual animal was identified by its own microchip upon entry and exit from the food channel via antennae. Randomization of the mice for each study group (n=8; age earliest 6 weeks old) was based on food intake (middle of last three days 24 h-Intervall) and bodyweight directly before start of the study. A vehicle treated (50 mM phosphate buffer pH7.4 with 3.5% Mannitol) group was included in each experiment. To have the same nutrition standard for each animal the food access was locked eight hours before dark phase. One hour before night, the animals were once treated subcutaneously with the test peptide. Food intake was reported hourly for a period of 24 h.

Where [6] appears, read: 0.5% human plasma, read-out: hGLP1R 0.5% hP.
[7] abbreviates: 0.5% human plasma, read-out: hGIPR 0.5% hP.
Where [8] appears, read: 0.5% human plasma, read-out: hNPY2R 0.5% hP.
Setting [9] is: 100% human plasma, read-out: hGIPR 100% hP.

Read-outs that look alike come from different tables or passages of the source. Starred links: 1 amine or outer side, 2 acyl side, 3 side chain; linkers in the order of their positions; H or OH if unused. Non-standard residues stand in square brackets, D forms with d. Groups on a side chain read outwards from the residue. *: point of attachment. C18 diacid = O=C(O)CCCCCCCCCCCCCCCCC(=O)*; γGlu = O=C(O)[C@H](CCC(=O)[*:2])N[*:1]; AEEA = NCCOCCOCC(=O)O; Aib = CC(C)(N)C(=O)O

T1 sequence (P43220 24-463): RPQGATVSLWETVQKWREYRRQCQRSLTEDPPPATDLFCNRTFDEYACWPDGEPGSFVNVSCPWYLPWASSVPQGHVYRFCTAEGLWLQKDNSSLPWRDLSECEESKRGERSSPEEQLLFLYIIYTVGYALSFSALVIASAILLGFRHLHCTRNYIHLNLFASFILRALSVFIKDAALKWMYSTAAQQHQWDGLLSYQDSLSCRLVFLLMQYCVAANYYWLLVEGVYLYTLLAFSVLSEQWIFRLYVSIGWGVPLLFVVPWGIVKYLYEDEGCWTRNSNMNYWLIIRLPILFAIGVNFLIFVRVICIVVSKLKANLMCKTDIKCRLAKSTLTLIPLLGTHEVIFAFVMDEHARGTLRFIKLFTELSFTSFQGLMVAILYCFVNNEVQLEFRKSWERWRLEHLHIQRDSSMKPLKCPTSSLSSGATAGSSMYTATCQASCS

The MRT is the average time that molecules of a dose stay in the body. `CC[C@H](C)[C@H](NC(=O)[C@H](CC(C)C)NC(=O)[C@H](Cc1c[nH]c2ccccc12)NC(=O)[C@H](CCC(=O)O)NC(=O)[C@@H](NC(=O)[C@H](Cc1ccccc1)NC(=O)[C@H](C)NC(=O)C(C)(C)NC(=O)[C@H](CCC(N)=O)NC(=O)[C@H](C)NC(=O)[C@H](CCC(N)=O)NC(=O)[C@H](CCCCN)NC(=O)[C@H](CCC(=O)O)NC(=O)[C@H](CC(C)C)NC(=O)C(C)(C)NC(=O)[C@@H](NC(=O)[C@H](CO)NC(=O)[C@H](Cc1ccc(O)cc1)NC(=O)[C@H](CC(=O)O)NC(=O)[C@H](CO)NC(=O)[C@@H](NC(=O)[C@H](Cc1ccccc1)NC(=O)[C@@H](NC(=O)CNC(=O)[C@H](CCC(=O)O)NC(=O)C(C)(C)NC(=O)[C@@H](N)Cc1ccc(O)cc1)[C@@H](C)O)[C@@H](C)O)[C@@H](C)CC)C(C)C)C(=O)N[C@@H](CCCCNC(=O)[C@@H](N)CCCCNC(=O)CC[C@H](NC(=O)CC[C@H](NC(=O)CC[C@H](NC(=O)CC[C@H](NC(=O)CC[C@H](NC(=O)CC[C@H](NC(=O)CCCCCCCCCCCCCCCCCCC(=O)O)C(=O)O)C(=O)O)C(=O)O)C(=O)O)C(=O)O)C(=O)O)C(=O)NCC(=O)NCC(=O)N1CCC[C@H]1C(=O)N[C@@H](CO)C(=O)N[C@@H](CO)C(=O)NCC(=O)N[C@@H](C)C(=O)N[C@@H](CO)C(=O)N[C@@H](CC(C)C)C(=O)N[C@@H](CCCNC(=N)N)C(=O)N[C@@H](Cc1c[nH]cn1)C(=O)N[C@@H](Cc1ccc(O)cc1)C(=O)N[C@@H](Cc1ccc(O)cc1)C(=O)N[C@@H](CC(N)=O)C(=O)N[C@@H](Cc1c[nH]c2ccccc12)C(=O)N[C@@H](CC(C)C)C(=O)N[C@H](C(=O)N[C@@H](CCCNC(=N)N)C(=O)N[C@@H](CCC(N)=O)C(=O)N[C@@H](CCCNC(=N)N)C(=O)N[C@@H](Cc1ccc(O)cc1)C(N)=O)[C@@H](C)O` [Compound 221, Y-Aib-E-G-T-F-T-S-D-Y-S-I-Aib-L-E-K-Q-A-Q-Aib-A-F-V-E-W-L-I-K(1,3)-GGPSSGASLRHYYNWLTRQRY-NH2.C20DA-gGlu-gGlu-gGlu-gGlu-gGlu-gGlu-eLys(1,2)]: the EC50 in series [1] (setting [6]) came to 0.11 nM; in series [2] (setting [7]), 0.14 nM; in series [3] (setting [8]), 12.4 nM; in series [3] (100% human plasma, read-out: hNPY2R 100% hP), 49.3 nM. In addition, the MRT in series [4] (plasma) is 11 h. The “Acute Food Intake 24 h 30 nmol/kg [% CTL]” value in series [5] was 51 % CTL.
In series [4] (in vivo), `CC[C@H](C)[C@H](NC(=O)[C@H](CC(C)C)NC(=O)[C@H](Cc1c[nH]c2ccccc12)NC(=O)[C@H](CCC(=O)O)NC(=O)[C@@H](NC(=O)[C@H](Cc1ccccc1)NC(=O)[C@H](C)NC(=O)C(C)(C)NC(=O)[C@H](CCC(N)=O)NC(=O)[C@H](C)NC(=O)[C@H](CCC(N)=O)NC(=O)[C@H](CCCCN)NC(=O)[C@H](CCC(=O)O)NC(=O)[C@H](CC(C)C)NC(=O)C(C)(C)NC(=O)[C@@H](NC(=O)[C@H](CO)NC(=O)[C@H](Cc1ccc(O)cc1)NC(=O)[C@H](CC(=O)O)NC(=O)[C@H](CO)NC(=O)[C@@H](NC(=O)[C@H](Cc1ccccc1)NC(=O)[C@@H](NC(=O)CNC(=O)[C@H](CCC(=O)O)NC(=O)C(C)(C)NC(=O)[C@@H](N)Cc1ccc(O)cc1)[C@@H](C)O)[C@@H](C)O)[C@@H](C)CC)C(C)C)C(=O)N[C@@H](CCCCNC(=O)[C@@H](N)CCCCNC(=O)[C@H](CCC(=O)O)NC(=O)CC[C@H](NC(=O)CC[C@H](NC(=O)CC[C@H](NC(=O)CC[C@H](NC(=O)CC[C@H](NC(=O)CCCCCCCCCCCCCCCCCCC(=O)O)C(=O)O)C(=O)O)C(=O)O)C(=O)O)C(=O)O)C(=O)NCC(=O)NCC(=O)N1CCC[C@H]1C(=O)N[C@@H](CO)C(=O)N[C@@H](CCC(=O)O)C(=O)NCC(=O)N[C@@H](C)C(=O)N[C@@H](CO)C(=O)N[C@@H](CC(C)C)C(=O)N[C@@H](CCCNC(=N)N)C(=O)N[C@@H](Cc1c[nH]cn1)C(=O)N[C@@H](Cc1ccc(O)cc1)C(=O)N[C@@H](Cc1ccc(O)cc1)C(=O)N[C@@H](CC(N)=O)C(=O)N[C@@H](Cc1c[nH]c2ccccc12)C(=O)N[C@@H](CC(C)C)C(=O)N[C@H](C(=O)N[C@@H](CCCNC(=N)N)C(=O)N[C@@H](CCC(N)=O)C(=O)N[C@@H](CCCNC(=N)N)C(=O)N[C@@H](Cc1ccc(O)cc1)C(N)=O)[C@@H](C)O` [Compound 286, Y-Aib-E-G-T-F-T-S-D-Y-S-I-Aib-L-E-K-Q-A-Q-Aib-A-F-V-E-W-L-I-K(1,3)-GGPSEGASLRHYYNWLTRQRY-NH2.C20DA-gGlu-gGlu-gGlu-gGlu-gGlu-Glu-eLys(1,2)] had a mean residence time (MRT) of 11 h. The “Acute Food Intake 24 h 30 nmol/kg [% CTL]” value in series [5] is reported as 58 % CTL.
As for “H-Y[Aib]EGTFTSDYSI[Aib]LEKQAQ[Aib]EFVEWLIK([AEEA-AEEA-γGlu-γGlu-γGlu-γGlu-C18 diacid])GGPSSGASLRHYYNWLTRQRY-NH2 [Compound 145, Y-Aib-E-G-T-F-T-S-D-Y-S-I-Aib-L-E-K-Q-A-Q-Aib-E-F-V-E-W-L-I-K(1,3)-GGPSSGASLRHYYNWLTRQRY-NH2.C18DA-gGlu-gGlu-gGlu-gGlu-OEG-OEG(1,2)]”, the EC50 in series [1] (setting [6]) is 0.31 nM; in series [2] (setting [7]), 0.28 nM; in series [2] (setting [9]) it was 1.23 nM; in series [3] (setting [8]) it was 11.9 nM. Besides, the MRT in series [4] (plasma) came out at 8 h. Moreover, the “Acute Food Intake 24 h 30 nmol/kg [% CTL]” value in series [5] stood at 43 % CTL.
For the compound “H-Y[Aib]EGTFTSDYSI[Aib]LEKQAQ[Aib]EFVEWLIK([γGlu-γGlu-γGlu-γGlu-C18 diacid])GGPSEGASLRHYYNWLTRQRY-NH2 [Compound 276, Y-Aib-E-G-T-F-T-S-D-Y-S-I-Aib-L-E-K-Q-A-Q-Aib-E-F-V-E-W-L-I-K(1,3)-GGPSEGASLRHYYNWLTRQRY-NH2.C18DA-gGlu-gGlu-gGlu-gGlu(1,2)]”, the EC50 stood at 0.35 nM in series [1] (setting [6]); 16.7 nM in series [1] (100% human plasma, read-out: hGLP1R 100% hP); 0.37 nM in series [2] (setting [7]); 1.82 nM in series [2] (setting [9]); 20.7 nM in series [3] (setting [8]). Also, the “Acute Food Intake 24 h 30 nmol/kg [% CTL]” value in series [5] amounted to 60 % CTL.
